Source: patent publication US5252718A, “Fibroblast growth factor antagonists” (The Salk Institute for Biological Studies, priority 1992, dated 1993)
Square brackets hold non-standard residues; d marks the D form. Ends that are not written are not given here. Peptide text beside a SMILES is read from it. Sar = CNCC(=O)O

Legend:
BAAE cells = type: cell-based, bovine; details: for reducing cell population, bFGF-stimulated endothelial cell growth / reducing cell population, basal endothelial cell growth: manner of Example II, concentration not given
Description: To determine the effectiveness of the bFGF fragment peptide to inhibit the growth of endothelial cells, the peptide is tested under conditions to measure its ability to modulate both basal cell growth and bFGF-simulated cell proliferation. A bioassay was employed of the type set forth in detail in Gospodarowicz et al., J. Cell Biol., 122, 323-333 (1985), using BAAE cells.
For each test, an initial cell density of between about 0.3-0.5×10^4 cells per well was established in 24-miniwell plates. After 6-8 hours, the cells in each well were treated with a challenge dose of bFGF in the absence, or presence to a varying concentration, of a synthetic FGF antagonist. The precise treatment was repeated 48 hours later. On the fifth day, the cells were digested with trypsin, and the total number of cells in each well was determined using a Coulter particle counter.

3T3 cells = assay: [^3 H]-thymidine incorporation in serum-starved 3T3 cells challenged with bFGF; type: cell-based; details: 24 hours with peptide and bFGF challenge, then 5 hours label, result in words
Description: The synthesis of bFGF(97-120)-NH2 having the formula: H-Arg-Leu-Glu-Ser-Asn-Asn-Tyr-Asn-Thr-Tyr-Arg-Ser-Arg-Lys-Tyr-Ser-Ser-Trp- Tyr-Val-Ala-Lys-Arg-NH2 is conducted in a stepwise manner using a Beckman 990 synthesizer and an MBHA resin in the manner described in Example I. The peptide is judged to be substantially pure using TLC and HPLC. Testing is carried out using a culture of serum-starved 3T3 cells which are incubated for 24 hours with the bFGF peptide fragment and a challenge dose of bFGF and then incubated for 5 hours with radioactive [^3 H]-thymidine to determine whether the fragment will inhibit the incorporation of [^3 H]-DNA in the cell line which will be indicative of its inhibiting cell growth.

[1] = system: FGF receptors of BHK cells; details: result in words
[2] = Binding to [^3 H]-heparin; details: result in words

## H-PDGRVDAVREKSDPHIKLQLQAEERGVVSIKGV-NH2 [[Ala^42]-bFGF(36-68)-NH2, H-Pro-Asp-Gly-Arg-Val-Asp-Ala-Val-Arg-Glu-Lys-Ser-Asp-Pro-His-Ile-Lys-Leu- Gln-Leu-Gln-Ala-Glu Glu-Arg-Gly-Val-Val-Ser-Ile-Lys-Gly-Val-NH2]
BAAE cells; result in words
  antagonist activity to both basal and bFGF-stimulated endothelial cell growth: full antagonist activity

## H-YRSRKYSSWFVALKR-NH2 [[Phe^115]-bFGF(106-120)-NH2, H-Tyr-Arg-Ser-Arg-Lys-Tyr-Ser-Ser-Trp-Phe-Val-Ala-Leu-Lys-Arg-NH2]
3T3 cells
  inhibition of bFGF-induced mitosis ([^3 H]-thymidine incorporation): very good inhibition
[1]
  inhibition of bFGF binding to BHK cells (receptor): very strongly inhibits

## H-FFFERLESNNYNTYRSRKYSSWYVALKR-NH2 [bFGF(93-120)-NH2, H-Phe-Phe-Phe-Glu-Arg-Leu-Glu-Ser-Asn-Asn-Tyr-Asn-Thr-Tyr-Arg-Ser-Arg-Lys- Tyr-Ser-Ser-Trp-Tyr-Val-Ala Leu-Lys-Arg-NH2]
[2]
  binding of the peptide to heparin: binds to heparin
BAAE cells; result in words
  antagonist activity to both basal and bFGF-stimulated endothelial cell growth: full antagonist activity
[1]
  inhibition of bFGF binding to BHK cells (receptor): inhibits the binding

## YCKNGGFFLRIHPDGRVDGVREKADPHIKLQLQAEERGVV-NH2 [[Ala^47]-bFGF(24-63)-NH2]
BAAE cells; result in words
  antagonist activity to both basal and bFGF-stimulated endothelial cell growth: full antagonist activity

## H-HPDGRVDGVREKSDPH-NH2 [bFGF(35-50)-NH2, H-His-Pro-Asp-Gly-Arg-Val-Asp-Gly-Val-Arg-Glu-Lys-Ser-Asp-Pro-His-NH2]
BAAE cells; result in words
  antagonist activity to both basal and bFGF-stimulated endothelial cell growth: full antagonist activity

## H-Cys-Lys-Asn-Gly-Gly-Phe-Phe-T-Arg-Ile-His-Pro-Asp-NH2 [bFGF(25-37)-NH2]
[2]
  binding of the peptide to heparin: fairly strong binding affinity
BAAE cells; basal growth only, result in words
  antagonist activity to basal endothelial cell growth: some antagonist activity
[1]
  binding affinity for BHK cells: fair affinity

## YNTYRSRKYSSWYVALKR-NH2 [bFGF(103-120)-NH2, H-Tyr-Asn-Thr-Tyr-Arg-Ser-Arg-Lys-Tyr-Ser-Ser-Trp-Tyr-Val-Ala-Leu-Lys-Arg- NH2]
[2]
  binding of the peptide to heparin: binds to heparin
3T3 cells
  inhibition of bFGF-induced mitosis ([^3 H]-thymidine incorporation): very good inhibition
[1]
  inhibition of bFGF binding to BHK cells (receptor): very strongly inhibits

## YCKNGGFFLRIHPDGRVDGVREKSDPHIKLQLQAEERGVV-NH2 [bFGF(24-63)-NH2, H-Tyr-Cys-Lys-Asn-Gly-Gly-Phe-Phe-Leu-Arg-Ile-His-Pro-Asp-Gly-Arg-Val-Asp- Gly-Val-Arg-Glu-LysSer-Asp-Pro-His-Ile-Lys-Leu-Gln-T-Gln-Ala -Glu-Glu-Arg-Gly-Val-Val-NH2]
BAAE cells; result in words
  antagonist activity to both basal and bFGF-stimulated endothelial cell growth: full antagonist activity

## H-LRIHPDGR-NH2 [bFGF(32-39)-NHz, H-Leu-Arg-Ile-His-Pro-Asp-Gly-Arg-NH2]
BAAE cells
  reducing cell population, bFGF-stimulated endothelial cell growth: about 11%
  reducing cell population, basal endothelial cell growth: about 37%
BAAE cells; result in words
  antagonist activity to both basal and bFGF-stimulated endothelial cell growth: full antagonist activity

## H-HPDGRVDAVREKTDPH-NH2 [[Ala^42, Thr^47]-bFGF(35-50)-NH2, H-His-Pro-Asp-Gly-Arg-Val-Asp-Ala-Val-Arg-Glu-Lys-Thr-Asp-Pro-His-NH2]
BAAE cells; result in words
  antagonist activity to both basal and bFGF-stimulated endothelial cell growth: full antagonist activity

## CC[C@H](C)[C@H](NC(=O)[C@H](CO)NC(=O)[C@@H](NC(=O)[C@@H](NC(=O)CNC(=O)[C@H](CCCNC(=N)N)NC(=O)[C@H](CCC(=O)O)NC(=O)[C@H](CCC(=O)O)NC(=O)[C@H](C)NC(=O)[C@H](CCC(N)=O)NC(=O)[C@H](CC(C)C)NC(=O)[C@H](CCC(N)=O)NC(=O)[C@H](CC(C)C)NC(=O)[C@H](CCCCN)NC(=O)[C@@H](NC(=O)[C@H](Cc1c[nH]cn1)NC(=O)[C@@H]1CCCN1C(=O)[C@H](CC(=O)O)NC(=O)[C@H](CO)NC(=O)[C@H](CCCCN)NC(=O)[C@H](CCC(=O)O)NC(=O)[C@H](CCCNC(=N)N)NC(=O)[C@@H](NC(=O)CN(C)C(=O)[C@H](CC(=O)O)NC(=O)[C@@H](NC(=O)[C@H](CCCNC(=N)N)NC(=O)CNC(=O)[C@H](CC(=O)O)NC(=O)[C@@H]1CCCN1)C(C)C)C(C)C)[C@@H](C)CC)C(C)C)C(C)C)C(=O)N[C@@H](CCCCN)C(=O)NCC(=O)N[C@H](C(N)=O)C(C)C [[Sar42]-bFGF(36-68)-NH2] (H-PDGRVD[Sar]VREKSDPHIKLQLQAEERGVVSIKGV-NH2)
BAAE cells; result in words
  antagonist activity to both basal and bFGF-stimulated endothelial cell growth: full antagonist activity

## H-FFLRIHPDGRVDGVREKSDPY-NH2 [[Tyr^50]-bFGF(30-50)-NHz, H-Phe-Phe-Leu-Arg-Ile-His-Pro-Asp-Gly-Arg-Val-Asp-Gly-Val-Arg-Glu-Lys-Ser- Asp-Pro-Tyr-NH2]
BAAE cells
  reducing cell population, bFGF-stimulated endothelial cell growth: about 6%
  reducing cell population, basal endothelial cell growth: about 19%
BAAE cells; result in words
  antagonist activity to both basal and bFGF-stimulated endothelial cell growth: full antagonist activity

## H-YNTYRSRKYSAWYVALKRTGQYKLGPKTGPGQKAILFLPMSAKS-NH2 [[Ala^113]-bFGF(103-146)-NH2]
[1]
  inhibition of bFGF binding to BHK cells (receptor): very strongly inhibits

## H-YCKNGGFFLRIHPDGRVDGVREKSDPHIKLQLQAEERGVVSIKGV-NH2 [bFGF(24-68)-NH2]
[2]
  binding of the peptide to heparin: strong affinity
BAAE cells
  ID50: about 5 micromolar
BAAE cells; bFGF-stimulated cell growth, peptide about 100 μg/ml
  cell population reduced, bFGF-stimulated cell growth: about 92%
BAAE cells; basal cell growth, peptide about 100 μg/ml
  cell population reduced, basal cell growth: about 84%
BAAE cells; result in words
  antagonist activity to both basal and bFGF-stimulated endothelial cell growth: full antagonist activity

## N=C(N)NCCC[C@H](NC(=O)CNC(=O)[C@H](CC(=O)O)NC(=O)[C@@H]1CCCN1)C(N)=O [bFGF(36-39)-NH2, H-Pro-Asp-Gly-Arg-NH2] (H-PDGR-NH2)
BAAE cells
  ID50: 30 to 50 µM
  reducing cell population, bFGF-stimulated endothelial cell growth: about 54%
  reducing cell population, basal endothelial cell growth: about 37%
BAAE cells; result in words
  antagonist activity to both basal and bFGF-stimulated endothelial cell growth: full antagonist activity

## H-YFLRIHPDGRVDGVREKSDPY-OH [[Tyr30,50]-bFGF(30-50)-OH, H-Tyr-Phe-Leu-Arg-Ile-His-Pro-Asp-Gly-Arg-Val-Asp-Gly-Val-Arg-Glu-Lys-Ser- Asp-Pro-Tyr-OH]
BAAE cells; result in words
  antagonist activity to both basal and bFGF-stimulated endothelial cell growth: full antagonist activity

## H-LRIHPDGRVDGVREKSDPHIKL-NH2 [bFGF(32-53)-NHz, H-Leu-Arg-Ile-His-Pro-Asp-Gly-Arg-Val-Asp-Gly-Val-Arg-Glu-Lys-Ser-Asp-Pro- His-Ile-Lys-Leu-NH2]
BAAE cells; result in words
  antagonist activity to both basal and bFGF-stimulated endothelial cell growth: weak antagonist activity

## H-SNNYNTYRSRKYSSWYVALKR-NH2 [bFGF(100-120)-NH2, H-Ser-Asn-Asn-Tyr-Asn-Thr-Tyr-Arg-Ser-Arg-Lys-Tyr-Ser-Ser-Trp-Tyr-Val-Ala- Leu-Lys-Arg-NH2]
[2]
  binding of the peptide to heparin: binds itself to heparin
3T3 cells
  inhibition of bFGF-induced mitosis ([^3 H]-thymidine incorporation): very good inhibition
[1]
  inhibition of bFGF binding to BHK cells (receptor): very strongly inhibits

## H-FFLRIHPDGRVDGVREKSDP-NH2 [bFGF(30-49)-NH2, H-Phe-Phe-Leu-Arg-Ile-His-Pro-Asp-Gly-Arg-Val-Asp-Gly-Val-Arg-Glu-Lys-Ser- Asp-Pro-NH2]
BAAE cells; result in words
  antagonist activity to both basal and bFGF-stimulated endothelial cell growth: full antagonist activity

## H-YRSRKYSSWYVALKR-NH2 [bFGF(106-120)-NH2, H-Tyr-Arg-Ser-Arg-Lys-Tyr-Ser-Ser-Trp-Tyr-Val-Ala-Leu-Lys-Arg-NH2]
[2]
  binding of the peptide to heparin: binds to heparin
3T3 cells
  inhibition of bFGF-induced mitosis ([^3 H]-thymidine incorporation): very good inhibition
[1]
  inhibition of bFGF binding to BHK cells (receptor): very strongly inhibits

## YCKNGGFFLRIHPDGRVDGVREKSDPHIKLQLQAEERGVVSIKGV [bFGF(24-68)-OH]
BAAE cells
  ID50: about 5 micromolar

## H-YRSRKYSSMYVALKR-NH2 [[Met^114]-bFGF(106-120)-NH2, H-Tyr-Arg-Ser-Arg-Lys-Tyr-Ser-Ser-Met-Tyr-Val-Ala-Leu-Lys-Arg-NH2]
3T3 cells
  inhibition of bFGF-induced mitosis ([^3 H]-thymidine incorporation): very good inhibition
[1]
  inhibition of bFGF binding to BHK cells (receptor): very strongly inhibits

## H-YNTYRSRKYSSWYVALKRTGQYKLGPKTGPGQKAILFLPMSAKS-NH2 [bFGF(103-146)-NH2, H-Tyr-Asn-Thr-Tyr-Arg-Ser-Arg-Lys-Tyr-Ser-Ser-Trp-Tyr-Val-Ala-Leu-Lys-Arg- Thr-Gly-Gln-Tyr-Lys-Leu-Gly -Pro-Lys-Thr-Gly-Pro-Gly-Gln-Lys-Ala-Ile-Leu-Phe-Leu-Pro-Met-Ser-Ala-Lys-Ser-NH2]
[2]
  inhibition of FGF binding to heparin: very strongly inhibits
[1]
  inhibition of bFGF binding to BHK cells (receptor): very strongly inhibits

## YKNGGFFLRIHPDGRVDGVREKSDPHIKLQLQAEERGVVSIKGV-NH2 [[Tyr^25]-bFGF(25-68)-NH2]
[2]
  binding of the peptide to heparin: very strong binding affinity
BAAE cells
  reducing cell population, bFGF-stimulated endothelial cell growth: about 95%
  reducing cell population, basal endothelial cell growth: about 86%
BAAE cells; result in words
  antagonist activity to both basal and bFGF-stimulated endothelial cell growth: full antagonist activity
[1]
  binding affinity for BHK cells: very strong binding affinity

## H-YRSRKYSSWYVAL-NH2 [bFGF(106-118)-NH2, H-Tyr-Arg-Ser-Arg-Lys-Tyr-Ser-Ser-Trp-Tyr-Val-Ala-Leu-NH2]
BAAE cells; result in words
  antagonist activity in mitogenic assays: partial antagonist activity
[1]
  inhibition of bFGF binding to BHK cells (receptor): inhibits binding
